Tested on: IL1b release THP-1
Test: IL1b release THP-1 (ELISA)
Type: cell-based
Details: Homo sapiens, THP-1, read-out: THP 1 IL 1b, EC50, μM
Experimental: Example A. Primary Assays Used to Determine IL1b Release THP-1 (ELISA)
• Microbiological safety cabinet, classII (NuAire, USA) • CO2 incubator (VWR Science, USA) • Countess Automated Cell Counter (Invitrogen, USA, cat. number C10227) • Centrifuge CM 6M (Elmi, Latvia) • Serological pipettes 2, 5, 10, 25, 50, 100 ml sterile (Santa Cruz Biotechnology, Inc., USA, sc-200277, sc-200279, sc-200281, sc-200283, Sc-213234, sc-516777) • Single and multichannel pipettes 0.2-10 μL, 50-1200 μL (Eppendorf AG-Hamburg, Germany) • 50 mL PP sterile tubes (Greiner, cat. Number 210261).
• RPMI-1640 (PanEco, C330) • Sodium pyruvate (Paneco, cat. number Φ023) • Non-Essential amino acids 50× (Paneco, Φ116) • Essential amino acids 50× (Paneco, Φ115/50) • FBS (Hyclone Laboratories Inc, USA, SV30160.03) • Antibiotic-antimycotic (Gibco, USA, 15240-062) • 2-mercaptoethanol 1000×55 mM (Gibco, USA, 21985-023) • LPS-EB ultrapure (invivogen, cat. number tlrl-3pelps) • Nigericin (Sigma, cat. number N7143) • ELISA kit, IL-1beta (Cat #A-8766, Interleukin-1 beta-EIA-BEST, Vector Best). LPS Preparation (5 mg/ml): • 1. Add 1 ml of endotoxin-free water according manufacturer's protocol • 2. Vortex until complete solubilization • 3. Aliquote and store at […] for long term storage.
• 1. Add methanol to 10 mg of powder to produce the 10 mM Nigericin solution • 2. Vortex until complete solubilization • 3. Store at 4° C.
THP-1 cells were propagated in RPMI-1640 (10% FBS, Antibiotic-antimycotic 1×, non-Essential amino acids 1×, Essential amino acids 1×, Sodium pyruvate 2×, 2-mercaptoethanol 0.05 mM) at 37° C. and at 5% CO2 in an incubator.
• 1. THP-1 cells were spined at 100 g for 5 min in 50 ml tube. • 2. THP-1 cells were resuspended in warm culture medium (w/o FBS, w/o Antibiotic-antimycotic, non-Essential amino acids 1×, Essential amino acids 1×, Sodium pyruvate 2×) to the concentration 1,3×10^6 cells. • 3. THP-1 cells were primed in tube with 1 μg/ml of LPS for 4 h at 37° C. and at 5% CO2 in an incubator. • 4. THP-1 cells were stimulated with 10 μM of Nigericin (Cat #N7143-10 MG, Sigma Aldrich) for 2 h at 37° C. and at 5% CO2 in an incubator. • 5. After the full activation, the supernatant was collected and the levels of IL-1β were assessed via ELISA according manufacturer instructions (Cat #A-8766, Vector Best).
The average EC50 values are shown in Table A, wherein “A” corresponds to EC50: A≤0.5 μM, “B” corresponds to 0.5 μM<EC50≤1.0 μM, “C” 1.0 μM<EC50≤5.0 μM, “D” corresponds to 5.0 μM<EC50≤30 μM and “E” corresponds to EC50>30 μM.

Row | SMILES | EC50 [µM]
1 | Cc1cc(-c2ccc(C(F)(F)F)cc2NS(C)(=O)=O)nnc1N[C@@H]1CCCN(C(C)C)C1 [Compound 25, (R)—N-(2-(6-((1-Isopropylpiperidin-3-yl)amino)-5-methylpyridazin-3-yl)-5-(trifluoromethyl)phenyl) methanesulfonamide] | < 0.5
2 | Cc1cc(-c2ccc(C(F)(F)F)cc2NS(C)(=O)=O)nnc1N[C@@H]1CCCN(C2CCC2)C1 [Compound 31, (R)—N-(2-(6-((1-Cyclobutylpiperidin-3-yl)amino)-5-methylpyridazin-3-yl)-5-(trifluoromethyl)phenyl) methanesulfonamide] | < 0.5
3 | Cc1cc(-c2ccc(C(F)(F)F)cc2NS(C)(=O)=O)nnc1N[C@@H]1CCCN(C2CCCCC2)C1 [Compound 32, (R)—N-(2-(6-((1-Cyclohexylpiperidin-3-yl)amino)-5-methylpyridazin-3-yl)-5-(trifluoromethyl)phenyl) methanesulfonamide] | < 0.5
4 | CCC(C)N1CCC[C@@H](Nc2cc(C)c(-c3ccc(C(F)(F)F)cc3NS(C)(=O)=O)nn2)C1 (stereo partly drawn) [Compound 35, N-(2-(6-(((3R)-1-(sec-Butyl)piperidin-3-yl)amino)-4-methylpyridazin-3-yl)-5-(trifluoromethyl)phenyl) methanesulfonamide] | < 0.5

Same assay, conditions: Homo sapiens; average EC50; THP-1 cells primed with 1 μg/ml LPS 4 h, stimulated with 10 μM Nigericin 2 h; IL-1β in supernatant by ELISA; read-out: THP 1 IL 1b, EC50

Row | EC50 [µM] | SMILES
5 | < 0.5 | CCN1CCC[C@@H](Nc2nnc(-c3ccc(C(F)(F)F)cc3NS(C)(=O)=O)c3c2CCCC3)C1 [Compound 37, (R)—N-(2-(4-((1-Ethylpiperidin-3-yl)amino)-5,6,7,8-tetrahydrophthalazin-1-yl)-5-(trifluoromethyl)phenyl) methane sulfonamide]
6 | < 0.5 | Cc1cc(-c2ccc(C(F)(F)F)cc2NS(C)(=O)=O)nnc1N[C@@H]1CCCN(C2CCOCC2)C1 [Compound 38, (R)—N-(2-(5-Methyl-6-((1-(tetrahydro-2H-pyran-4-yl)piperidin-3-yl)amino)pyridazin-3-yl)-5-(trifluoromethyl)phenyl) methanesulfonamide]
7 | < 0.5 | Cc1cc(N[C@@H]2CCCN(C3CCOCC3)C2)nnc1-c1ccc(C(F)(F)F)cc1NS(C)(=O)=O [Compound 39]
8 | < 0.5 | Cc1cc(N[C@@H]2CCCN(CC3CCCCC3)C2)nnc1-c1ccc(C(F)(F)F)cc1NS(C)(=O)=O [Compound 40, N-[2-[6-[[(3R)-1-(cyclohexylmethyl)-3-piperidyl]amino]-4-methyl-pyridazin-3-yl]-5-(trifluoromethyl)phenyl]methanesulfon-amide]
9 | < 0.5 | Cc1cc(N[C@@H]2CCCN(C3CCCCC3)C2)nnc1-c1ccc(C(F)(F)F)cc1NS(C)(=O)=O [Compound 41, N-[2-[6-[[(3R)-1-cyclohexyl-3-piperidyl]amino]-4-methyl-pyridazin-3-yl]-5-(trifluoromethyl)phenyl]methanesulfon-amide]
10 | < 0.5 | Cc1cc(-c2ccc(C(F)(F)F)cc2NS(C)(=O)=O)nnc1N[C@@H]1CCCN(C2CC2)C1 [Compound 42, (R)—N-(2-(6-((1-Cyclopropylpiperidin-3-yl)amino)-5-methylpyridazin-3-yl)-5-(trifluoromethyl)phenyl) methanesulfonamide]
11 | < 0.5 | CCN1CCC[C@@H](Nc2cc(C3CC3)c(-c3ccc(C(F)(F)F)cc3NS(C)(=O)=O)nn2)C1 [Compound 43, (R)—N-(2-(4-Cyclopropyl-6-((1-ethylpiperidin-3-yl)amino)pyridazin-3-yl)-5-(trifluoromethyl)phenyl) methanesulfonamide]
12 | 0.5 to 1 | Cc1cc(N[C@@H]2CCCN(Cc3ccccc3)C2)nnc1-c1ccc(C(F)(F)F)cc1NS(C)(=O)=O [Compound 44, N-[2-[6-[[(3R)-1-benzyl-3-piperidyl]amino]-4-methyl-pyridazin-3-yl]-5-(trifluoromethyl)phenyl]methanesulfon-amide]
13 | 0.5 to 1 | CCN1CCC[C@@H](Nc2nnc(-c3ccc(C(F)(F)F)cc3NS(C)(=O)=O)cc2C(F)(F)F)C1 [Compound 45, N-[2-[6-[[(3R)-1-ethyl-3-piperidyl]amino]-5-(trifluoromethyl)pyridazin-3-yl]-5-(trifluoromethyl)phenyl]methanesulfon-amide]

Continued, molecule first:

Row | SMILES | EC50 [µM]
14 | CCN1CCC[C@@H](Nc2nnc(-c3ccc(C(F)(F)F)c4cn[nH]c34)cc2C)C1 [Compound 18, (R)—N-(1-ethylpiperidin-3-yl)-4-methyl-6-(4-(trifluoromethyl)-1H-indazol-7-yl)pyridazin-3-amine] | > 30
15 | Cc1cc(-c2ccc(C(F)(F)F)c3cn[nH]c23)nnc1N[C@@H]1CCCN(CCO)C1 [Compound 19, 2-[(3R)-3-[[4-methyl-6-[4-(trifluoromethyl)-1H-indazol-7-yl]pyridazin-3-yl]amino]-1-piperidyl]ethanol] | > 30
16 | Cc1cc(N[C@@H]2CCCN(C)C2)nnc1-c1ccc(C(F)(F)F)c2nn[nH]c12 [Compound 20, (R)-5-Methyl-N-(1-methylpiperidin-3-yl)-6-(4-(trifluoromethyl)-1H-benzo[d][1,2,3]triazol-7-yl)pyridazin-3-amine] | > 30
17 | Cc1cc(-c2ccc(C(F)(F)F)c3nn[nH]c23)nnc1N[C@@H]1CCCN(C)C1 [Compound 21, 4-methyl-N-[(3R)-1-methyl-3-piperidyl]-6-[7-(trifluoromethyl)-3H-benzotriazol-4-yl]pyridazin-3-amine] | 5 to 30
18 | Cc1c(N[C@@H]2CCCN(C)C2)nnc(-c2ccc(C(F)(F)F)c3nn[nH]c23)c1C [Compound 22, (R)-4,5-dimethyl-N-(1-methylpiperidin-3-yl)-6-(4-(trifluoromethyl)-1H-benzo[d][1,2,3]triazol-7-yl)pyridazin-3-amine] | 5 to 30
19 | CN1CCC[C@@H](Nc2cc(C(F)(F)F)c(-c3ccc(C(F)(F)F)c4nn[nH]c34)nn2)C1 [Compound 23] | > 30
20 | CN1CCC[C@@H](Nc2nnc(-c3ccc(C(F)(F)F)c4nn[nH]c34)cc2C(F)(F)F)C1 [Compound 24] | > 30
21 | Cc1cc(-c2ccc(C(F)(F)F)cc2NS(C)(=O)=O)nnc1N[C@@H]1CCCN(C2CCCC2)C1 [Compound 26, (R)—N-(2-(6-((1-Cyclopentylpiperidin-3-yl)amino)-5-methylpyridazin-3-yl)-5-(trifluoromethyl)phenyl) methanesulfonamide] | < 0.5
22 | Cc1cc(N[C@@H]2CCCN(C(C)C)C2)nnc1-c1ccc(C(F)(F)F)cc1NS(C)(=O)=O [Compound 27] | < 0.5
23 | CCN1CCC[C@@H](Nc2nnc(-c3ccc(C(F)(F)F)cc3NS(C)(=O)=O)cc2C2CC2)C1 [Compound 28, (R)—N-(2-(5-Cyclopropyl-6-((1-ethylpiperidin-3-yl)amino)pyridazin-3-yl)-5-(trifluoromethyl)phenyl) methane-sulfonamide] | < 0.5
24 | Cc1cc(-c2ccc(C(F)(F)F)cc2NC(=O)C(C)C)nnc1N[C@@H]1CCCN(C(C)C)C1 [Compound 29, N-[2-[6-[[(3R)-1-isopropyl-3-piperidyl]amino]-5-methyl-pyridazin-3-yl]-5-(trifluoromethyl)phenyl]-2-methyl-propanamide] | 1 to 5
25 | CCN1CCC[C@@H](Nc2nnc(-c3ccc(C(F)(F)F)cc3NS(C)(=O)=O)c3c2C2CCC3CC2)C1 [Compound 30, (R)—N-(2-(4-((1-Ethylpiperidin-3-yl)amino)-5,6,7,8-tetrahydro-5,8-ethanophthalazin-1-yl)-5-(trifluoromethyl)phenyl) methanesulfonamide] | < 0.5
26 | Cc1cc(N[C@@H]2CCCN(C3CCCC3)C2)nnc1-c1ccc(C(F)(F)F)cc1NS(C)(=O)=O [Compound 33] | < 0.5
27 | Cc1cc(N[C@@H]2CCCN(C3CCC3)C2)nnc1-c1ccc(C(F)(F)F)cc1NS(C)(=O)=O [Compound 34] | < 0.5
28 | Cc1cc(N[C@@H]2CCCN(C3CC3)C2)nnc1-c1ccc(C(F)(F)F)cc1NS(C)(=O)=O [Compound 36, N-[2-[6-[[(3R)-1-cyclopropyl-3-piperidyl]amino]-4-methyl-pyridazin-3-yl]-5-(trifluoromethyl)phenyl]methanesulfon-amide] | < 0.5

Reference: patent US20260234123A1, “Inhibitors of NLRP3” (Mwyngil Therapeutics, Inc., priority 2023, published 2026)
